CC(C)=CCOc1c2ccoc2cc2oc(=O)ccc12
solubility (mole fraction)
Details | 288.2 K | 293.2 K | 298.2 K | 303.2 K | 308.2 K | 313.2 K | 318.2 K | 323.2 K | 328.2 K
in ethanol | 0.00263 | 0.00377 | 0.00531 | 0.00733 | 0.00999 | 0.0134 | 0.0178 | 0.023 | 0.03
in water | 6.03e-07 | 7.42e-07 | 9.34e-07 | 1.02e-06 | 1.16e-06 | 1.29e-06 | 1.68e-06 | 2.17e-06 | 2.79e-06
